{"source": "patent US20230159445A1", "about": "“STAT INHIBITORY COMPOUNDS AND COMPOSITIONS” (JANPIX LIMITED, priority 2020, published 2023)"}
{"test_system": "MV4-11 cells", "assay": "MV4-11 Cell Cytotoxicity Assay (CellTiter-Blue, 72 h)", "assay_type": "cell-based, human", "settings": "Homo sapiens, MV4-11; MV-4-11 cells", "method": "In some embodiments, the potency of the STAT5 inhibitors are evaluated by an in vitro assay such as MV4-11 Cell Cytotoxicity Assay. […] 10,000 cells were plated per well in 96-well flat-bottom sterile culture plates with low-evaporation lids. After 24 h, inhibitors and a vehicle control (0.5% DMSO) were added and the cells were incubated for 72 h at 37° C. in 5% CO2. Inhibitors were examined in triplicate at a maximal concentration of 50 μM, followed by 1:2 dilutions in subsequent wells (25, 12.5, 6.25, 3.125, 1.5625, 0.78125, 0.390625, 0.195313 and 0.097656 μM). After 72 h, the wells were treated with CellTiter-Blue® (20 μL/well), and the plates were incubated using standard cell culture conditions for 1 hour. Fluorescence was measured at 560/590 nm.", "units": {"IC50": "µM"}}
{"smiles": "CC(C)(C)c1cc(CN(C(=O)CN(Cc2ccccn2)S(=O)(=O)c2c(F)c(F)c(F)c(F)c2F)c2ccc(C(=O)O)c(O)c2)cc(C2CC2)c1", "note": "[Compound 1008, 4-(N-(3-(tert-butyl)-5-cyclopropylbenzyl)-2-(N-(pyridin-2-ylmethyl)-(2,3,4,5,6-pentafluorophenyl)sulfonamido)acetamido)-2-hydroxybenzoic acid]", "IC50": "3.16 to 100"}
{"smiles": "COc1c(CN(C(=O)CN(Cc2ccc(Cl)cc2)S(=O)(=O)c2c(F)c(F)c(F)c(F)c2F)c2ccc(C(=O)O)c(O)c2)cc(C(C)(C)C)cc1C1CC1", "note": "[Compound 1009, 4-(N-(5-(tert-butyl)-3-cyclopropyl-2-methoxybenzyl)-2-(N-(4-chlorobenzyl)-(2,3,4,5,6-pentafluorophenyl)sulfon-amido)acetamido)-2-hydroxybenzoic acid]", "IC50": "3.16 to 100"}
{"smiles": "O=C(O)c1ccc(N(Cc2cc(OCC3CC3)cc(OCC3CC3)c2)C(=O)CN(Cc2ccc(Cl)cc2)S(=O)(=O)c2c(F)c(F)c(F)c(F)c2F)cc1O", "note": "[Compound 1011, 4-(N-(3,5-bis(cyclopropylmethoxy)benzyl)-2-(N-(4-chlorobenzyl)-(2,3,4,5,6-pentafluorophenyl)sulfon-amido)acetamido)-2-hydroxybenzoic acid]", "IC50": "3.16 to 100"}
{"smiles": "CC(C)(C)c1cc(CN(C(=O)CN(Cc2cccnc2)S(=O)(=O)c2c(F)c(F)c(F)c(F)c2F)c2ccc(C(=O)O)c(O)c2)cc(C2CC2)c1", "note": "[Compound 1013, 4-(N-(3-(tert-butyl)-5-cyclopropylbenzyl)-2-(N-(pyridin-3-ylmethyl)-(2,3,4,5,6-pentafluoro-phenyl)sulfonamido)acetamido)-2-hydroxybenzoic acid]", "IC50": "3.16 to 100"}
{"smiles": "CC(C)(C)c1cc(CN(C(=O)CN(Cc2ccc(Cl)cc2)S(=O)(=O)c2c(F)c(F)c(F)c(F)c2F)c2ccc(O)c(C(=O)O)c2)cc(C2CC2)c1", "note": "[Compound 1018, 5-(N-(3-(tert-butyl)-5-cyclopropylbenzyl)-2-(N-(4-chlorobenzyl)-(2,3,4,5,6-pentafluorophenyl)sulfon-amido)acetamido)-2-hydroxybenzoic acid]", "IC50": "3.16 to 100"}
{"smiles": "CC(C)(C)c1cc(CN(C(=O)CN(Cc2ccc(Cl)cc2)S(=O)(=O)c2c(F)c(F)c(F)c(F)c2F)c2ccc(C(C)(C)C(=O)O)cc2)cc(C2CC2)c1", "note": "[Compound 1019, 2-(4-(N-(3-(tert-butyl)-5-cyclopropylbenzyl)-2-(N-(4-chlorobenzyl)-(2,3,4,5,6-pentafluorophenyl)sulfon-amido)acetamido)phenyl)-2-methylpropanoic acid]", "IC50": "1 to 3.16"}
{"smiles": "O=C(O)c1ccc(N(Cc2cc(O)cc(OCC3CC3)c2)C(=O)CN(Cc2ccc(Cl)cc2)S(=O)(=O)c2c(F)c(F)c(F)c(F)c2F)cc1O", "note": "[Compound 1020, 4-(2-(N-(4-chlorobenzyl)-(2,3,4,5,6-pentafluorophenyl)sulfon-amido)-N-(3-(cyclopropylmethoxy)-5-hydroxybenzyl)acetamido)-2-hydroxybenzoic acid]", "IC50": "3.16 to 100"}
{"smiles": "COc1ccc(CN(CC(=O)N(Cc2cc(C3CC3)cc(C(C)(C)C)c2)c2ccc(C(=O)O)c(O)c2)S(=O)(=O)c2c(F)c(F)c(F)c(F)c2F)cc1", "note": "[Compound 1026, 4-(N-(3-(tert-butyl)-5-cyclopropylbenzyl)-2-(N-(4-methoxybenzyl)-(2,3,4,5,6-pentafluoro-phenyl)sulfonamido)acetamido)-2-hydroxybenzoic acid]", "IC50": "3.16 to 100"}
{"smiles": "COc1ccc(CN(CC(=O)N(Cc2cc(C3CC3)cc(C(C)(C)C)c2)c2ccc(C(=O)O)c(O)c2)S(=O)(=O)c2c(F)c(F)c(F)c(F)c2F)cc1F", "note": "[Compound 1027, 4-(N-(3-(tert-butyl)-5-cyclopropylbenzyl)-2-(N-(3-fluoro-4-methoxybenzyl)-(2,3,4,5,6-pentafluoro-phenyl)sulfonamido)acetamido)-2-hydroxybenzoic acid]", "IC50": "3.16 to 100"}
{"smiles": "COc1cc(CN(CC(=O)N(Cc2cc(C3CC3)cc(C(C)(C)C)c2)c2ccc(C(=O)O)c(O)c2)S(=O)(=O)c2c(F)c(F)c(F)c(F)c2F)ccc1F", "note": "[Compound 1028, 4-(N-(3-(tert-butyl)-5-cyclopropylbenzyl)-2-(N-(4-fluoro-3-methoxybenzyl)-(2,3,4,5,6-pentafluoro-phenyl)sulfonamido)acetamido)-2-hydroxybenzoic acid]", "IC50": "1 to 3.16"}
{"smiles": "CC(C)(C)c1cc(CN(C(=O)CN(Cc2ccc(Cl)cc2)S(=O)(=O)c2c(F)c(F)c(F)c(F)c2F)c2ccc(O)c(O)c2)cc(C2CC2)c1", "note": "[Compound 1029, N-(3-(tert-butyl)-5-cyclopropylbenzyl)-2-(N-(4-chlorobenzyl)-(2,3,4,5,6-pentafluorophenyl)sulfonamido)-N-(3,4-dihydroxyphenyl) acetamide]", "IC50": "3.16 to 100"}
{"smiles": "CC(C)(C)c1cc(CN(C(=O)CN(Cc2ccc(Cl)cc2)S(=O)(=O)c2c(F)c(F)c(F)c(F)c2F)c2cc(O)cc(O)c2)cc(C2CC2)c1", "note": "[Compound 1030, N-(3-(tert-butyl)-5-cyclopropylbenzyl)-2-(N-(4-chlorobenzyl)-(2,3,4,5,6-pentafluorophenyl)sulfonamido)-N-(3,5-dihydroxyphenyl) acetamide]", "IC50": "3.16 to 100"}
{"smiles": "CC(C)(C)c1cc(CN(C(=O)CN(Cc2ccc(Cl)cc2)S(=O)(=O)c2c(F)c(F)c(F)c(F)c2F)c2ccc(C(=O)NO)cc2)cc(C2CC2)c1", "note": "[Compound 1032, 4-(N-(3-(tert-butyl)-5-cyclopropylbenzyl)-2-(N-(4-chlorobenzyl)-(2,3,4,5,6-pentafluorophenyl)sulfon-amido)acetamido)-N-hydroxybenzamide]", "IC50": "3.16 to 100"}
{"smiles": "CC(C)(C)c1cc(CN(C(=O)CN(Cc2cccc(O)c2)S(=O)(=O)c2c(F)c(F)c(F)c(F)c2F)c2ccc(C(=O)O)c(O)c2)cc(C2CC2)c1", "note": "[Compound 1035, 4-(N-(3-(tert-butyl)-5-cyclopropylbenzyl)-2-(N-(3-hydroxybenzyl)-(2,3,4,5,6-pentafluoro-phenyl)sulfonamido)acetamido)-2-hydroxybenzoic acid]", "IC50": "3.16 to 100"}
{"smiles": "CC(C)(C)c1cc(CN(C(=O)CN(Cc2ccccc2O)S(=O)(=O)c2c(F)c(F)c(F)c(F)c2F)c2ccc(C(=O)O)c(O)c2)cc(C2CC2)c1", "note": "[Compound 1036, 4-(N-(3-(tert-butyl)-5-cyclopropylbenzyl)-2-(N-(2-hydroxybenzyl)-(2,3,4,5,6-pentafluoro-phenyl)sulfonamido)acetamido)-2-hydroxybenzoic acid]", "IC50": "1 to 3.16"}
{"smiles": "COc1cccc(CN(CC(=O)N(Cc2cc(C3CC3)cc(C(C)(C)C)c2)c2ccc(C(=O)O)c(O)c2)S(=O)(=O)c2c(F)c(F)c(F)c(F)c2F)c1", "note": "[Compound 1038, 4-(N-(3-(tert-butyl)-5-cyclopropylbenzyl)-2-(N-(3-methoxybenzyl)-(2,3,4,5,6-pentafluoro-phenyl)sulfonamido)acetamido)-2-hydroxybenzoic acid]", "IC50": "3.16 to 100"}
{"smiles": "COC(=O)C(C)(C)c1ccc(N(Cc2cc(C3CC3)cc(C(C)(C)C)c2)C(=O)CN(Cc2ccc(Cl)cc2)S(=O)(=O)c2c(F)c(F)c(F)c(F)c2F)cc1", "note": "[Compound 1042, methyl 2-(4-(N-(3-(tert-butyl)-5-cyclopropylbenzyl)-2-(N-(4-chlorobenzyl)-(2,3,4,5,6-pentafluorophenyl)sulfon-amido)acetamido)phenyl)-2-methylpropanoate]", "IC50": "3.16 to 100"}
{"smiles": "COC(=O)c1ccc(N(Cc2cc(C3CC3)cc(C(C)(C)C)c2)C(=O)CN(Cc2ccc(Cl)cc2)S(=O)(=O)c2c(F)c(F)c(F)c(F)c2F)cc1O", "note": "[Compound 1051, methyl 4-(N-(3-(tert-butyl)-5-cyclopropylbenzyl)-2-(N-(4-chlorobenzyl)-(2,3,4,5,6-pentafluorophenyl)sulfon-amido)acetamido)-2-hydroxybenzoate]", "IC50": "3.16 to 100"}
{"smiles": "CC(C)(C)c1cc(CN(C(=O)CN(Cc2ccccc2F)S(=O)(=O)c2c(F)c(F)c(F)c(F)c2F)c2ccc(C(=O)O)cc2NS(C)(=O)=O)cc(C2CC2)c1", "note": "[Compound 1059, 4-(N-(3-(tert-butyl)-5-cyclopropylbenzyl)-2-(N-(2-fluorobenzyl)-(2,3,4,5,6-pentafluoro-phenyl)sulfonamido)acetamido)-3-(methylsulfonamido) benzoic acid]", "IC50": "3.16 to 100"}
{"smiles": "CC(C)Cc1cc(CN(C(=O)CN(Cc2ccccc2F)S(=O)(=O)c2c(F)c(F)c(F)c(F)c2F)c2ccc(C(=O)O)c(O)c2)cc(C2CC2)c1", "note": "[Compound 1067, 4-(N-(3-cyclopropyl-5-isobutylbenzyl)-2-(N-(2-fluorobenzyl)-(2,3,4,5,6-pentafluoro-phenyl)sulfonamido)acetamido)-2-hydroxybenzoic acid]", "IC50": "3.16 to 100"}
{"smiles": "CN(C)c1cc(C(=O)O)cc(F)c1N(Cc1cc(C2CC2)cc(C(C)(C)C)c1)C(=O)CN(Cc1ccccc1F)S(=O)(=O)c1c(F)c(F)c(F)c(F)c1F", "note": "[Compound 1069, 4-(N-(3-(tert-butyl)-5-cyclopropylbenzyl)-2-(N-(2-fluorobenzyl)-(2,3,4,5,6-pentafluoro-phenyl)sulfonamido)acetamido)-3-(dimethylamino)-5-fluorobenzoic acid]", "IC50": "0.316 to 1"}
{"smiles": "CC(C)(C)c1cc(CN(C(=O)CN(Cc2ccccc2F)S(=O)(=O)c2c(F)c(F)c(F)c(F)c2F)c2ccc(C(=O)O)cc2NCCCCl)cc(C2CC2)c1", "note": "[Compound 1074, 4-(N-(3-(tert-butyl)-5-cyclopropylbenzyl)-2-(N-(2-fluorobenzyl)-(2,3,4,5,6-pentafluoro-phenyl)sulfonamido)acetamido)-3-((3-chloropropyl)amino) benzoic acid]", "IC50": "1 to 3.16"}
{"smiles": "COc1cc(C(=O)O)ccc1N(Cc1cc(C2CC2)cc(C(C)(C)C)c1)C(=O)CN(Cc1ccc(F)nc1Cl)S(=O)(=O)c1c(F)c(F)c(F)c(F)c1F", "note": "[Compound 1096, 4-(N-(3-(tert-butyl)-5-cyclopropylbenzyl)-2-(N-((2-chloro-6-fluoropyridin-3-yl)methyl)-(2,3,4,5,6-pentafluorophenyl)sulfon-amido)acetamido)-3-methoxybenzoic acid]", "IC50": "1e-05 to 0.316"}
